The text below walks through data of PMC7998250, “Temperate Zone Plant Natural Products—A Novel Resource for Activity against Tropical Parasitic Diseases” (Pharmaceuticals, 2021).

In data set [1] the test system is L. mexicana axenic amastigotes. Briefly: Initial screen, L. mexicana axenic amastigotes, Alamar Blue. It is filed as cell-based, Leishmania mexicana. The settings on record: for activity at 2 µM: Leishmania mexicana; for decrease of L. mexicana survival: 2 μM, 72 h. The procedure: (§1) 634 compounds from the PhytoQuest Phytopure temperate plant natural product library were screened for growth inhibitory activity against L. mexicana axenic amastigotes, T. brucei bloodstream form, intraerythrocytic asexual P. falciparum (at 2 μM) and T. evansi bloodstream form parasites (at 1 μM). […] Our initial hits were defined as reducing growth of the parasite by ≥50%. […]
(§2) The PhytoQuest Phytopure library is a commercially available collection of purified compounds isolated predominantly from temperate zone plants, with structures confirmed by NMR and mass spectrometry. The library was provided as 634 non-polar compounds (1 mg/mL in DMSO). Initial screening was performed in a 96-well plate with 200 μL of parasite culture. The initial screen used each compound at a final concentration of 2 μM for L. mexicana axenic amastigotes, T. brucei and P. falciparum, and at 1 μM for T. evansi. L. mexicana axenic amastigotes were plated at 1 × 10^6 cells/mL, incubated for 72 h, and the Alamar Blue assay was used to assess parasite growth. Each compound was tested in triplicate, with two biological replicates (n = 6). T. brucei and T. evansi were plated at 1×10^5 cells/mL for 48 h, and the Alamar Blue assay was used to assess parasite growth. Each compound was tested in triplicate with two biological replicates (n = 6). Intraerythrocytic P. falciparum in the trophozoite stage were seeded at 0.5% parasitaemia and 2% haematocrit for 48 h, and the Malaria SYBR-Green I fluorescence assay was used to assess parasite growth. Each compound was tested in duplicate with two biological replicates (n = 4). Negative controls comprised an equivalent volume of DMSO (equivalent of 1% v/v) to normalise the growth data. Data points >100% growth and <0% growth were tabulated as 100% and 0%, respectively. Some compounds were not tested in all parasite lines as there was insufficient material remaining.

Data set [2] deals with T. brucei bloodstream form. The data set is described as follows: Initial screen, T. brucei bloodstream form, Alamar Blue. In kind it is cell-based, Trypanosoma brucei brucei. Here is the method: (§3) 634 compounds from the PhytoQuest Phytopure temperate plant natural product library were screened for growth inhibitory activity against L. mexicana axenic amastigotes, T. brucei bloodstream form, intraerythrocytic asexual P. falciparum (at 2 μM) and T. evansi bloodstream form parasites (at 1 μM). […] Our initial hits were defined as reducing growth of the parasite by ≥50%.
(§4) L. mexicana strain MNYC/BZ/62/M379 and L. donovani strain LdBOB (a clonal line from strain MHOM/SD/62/1S-CL2) were maintained in vitro in the procyclic promastigote stage. Parasites were cultivated at 26 °C in Schneider’s medium (Gibco) pH 7.0 containing 10% FBS, 100 U/mL penicillin (Lonza) and 100 μg/mL streptomycin (Lonza) as previously described. Differentiation into axenic amastigotes was performed as described previously. Briefly, axenic amastigotes were cultivated at 32 °C in Schneider’s medium pH 5.5 containing 10% FBS, 100 U/mL penicillin (Lonza) and 100 μg/mL streptomycin (Lonza). Bloodstream form T. brucei brucei strain Lister 427 and T. evansi strain Antat 3/3 [59] were maintained in vitro at 37 °C with 5% (v/v) CO2 in HMI-11 medium supplemented with 10% FBS, as described elsewhere. Intraerythrocytic cultures of P. falciparum Dd2^Luc strain [62] were maintained at 37 °C in a 1% O2:3% CO2:96% N2 atmosphere in RPMI-1640 containing 37.5 mM HEPES, 5 mM NaOH, 10 mM D-glucose, 2 mM L-glutamine, 100 μM hypoxanthine, […] gentamicin sulfate, 5% human serum and 5% albumax-II and 2% haematocrit erythrocytes. When required, cultures were synchronised to ring stages using the sorbitol lysis method. Preliminary cytotoxicity screening was assessed using HepG2 cells. These cells were maintained in vitro at 37 °C with 5% (v/v) CO2 in DMEM (Sigma) pH 7 supplemented with 10% FBS, 100 U/mL penicillin (Lonza) and 100 μg/mL streptomycin (Lonza), as previously described. The human monocyte cell line THP-1 [68] was maintained in vitro by culturing at 37 °C with 5% (v/v) CO2 in complete RPMI medium (Dutch modified RPMI-1640 (Gibco) containing 10% FBS and 2 mM L-glutamine (Gibco)). Differentiation of THP-1 cells into macrophages was performed by seeding 2.5 × 10^5 cells/mL in complete RPMI media, supplemented with 20 ng/mL phorbol 12-myristate 13-acetate (PMA), followed by incubation at 37 °C with 5% (v/v) CO2 for 24 h.
as §2, with “The” for “The PhytoQuest Phytopure library is a commercially available collection of purified compounds isolated predominantly from temperate zone plants, with structures confirmed by NMR and mass spectrometry. The”

The subject of data set [3] is T. evansi bloodstream form. The data set is described as follows: Initial screen, T. evansi bloodstream form, Alamar Blue. As to conditions: Trypanosoma evansi; for activity at 1 µM: initial screen; for inhibition of growth at 1 µM: read-out: initial hit T.e. It is filed as cell-based, Trypanosoma evansi. Here is the method: as §3, §4
as §2, with “The” for “The PhytoQuest Phytopure library is a commercially available collection of purified compounds isolated predominantly from temperate zone plants, with structures confirmed by NMR and mass spectrometry. The”

In data set [4] the test system is P. falciparum Dd2Luc intraerythrocytic trophozoites. Briefly: Initial screen, intraerythrocytic P. falciparum, Malaria SYBR-Green I fluorescence assay. In kind it is cell-based, Plasmodium falciparum. As to conditions: for activity at 2 µM: Plasmodium falciparum. The procedure: as §1, §2
In a further data set the test system is T. evansi. Briefly: Concentration-response EC50, T. evansi. It is filed as cell-based. The settings on record: Trypanosoma evansi, 48 h, read-out: T. evansi EC50.
A further data set is described as follows: in vitro. The settings on record: human, pH 7, HepG2 CC50.
Source text: Initial hits from the parasite panel screen were taken forward in log concentration versus normalised response assays to estimate the half maximal effective concentration (EC50) in hit species as well as the half maximal cytotoxic concentrations (CC50) in the human hepatoma cell line HepG2 as a preliminary test for selectivity. Using CC50/EC50 to define the selectivity index (SI), the selectivity for each compound in a defined species compared to a human cell line was estimated and compared to the EC50 (Figure 3).
as §4
EC50 values were determined by serial two-fold dilution of each compound in 96 well plates. Culture conditions and viability assays were as stated for the initial screen, with some exceptions. L. mexicana and L. donovani axenic amastigotes were seeded at 2 × 10^6 cell/s mL, T. brucei and T. evansi were seeded at 2 × 10^5 cells/mL. For cytotoxicity studies, HepG2 cells were seeded at 1 × 10^5 cells/mL, incubated for 48 h and viability was assessed using the Alamar Blue assay. Differentiated THP-1 cells were seeded at 5 × 10^4 cells/mL, incubated for 48 h, and viability was assessed by the Alamar Blue assay. Normalised growth and viability data (compared to untreated controls) were plotted against Log10 concentration to estimate EC50 in GraphPad (Prism v6). Bioluminescence relative rate of kill assays in asexual intraerythrocytic P. falciparum Dd2^Luc were carried out as described.

Where [5] appears, read: read-out: % growth L. mexicana, mean % growth compared to a normalised control with same concentration of DMSO solvent, initial screen.
[6] abbreviates: Trypanosoma brucei, mean % growth compared to a normalised control with same concentration of DMSO solvent, initial screen, read-out: % growth T. b. brucei.
Setting [7] is: mean % growth compared to a normalised control with same concentration of DMSO solvent, read-out: % growth T. evansi.
The mark [8] stands for this setting: 48 h, read-out: %growth P. falciparum, mean % growth compared to a normalised control with same concentration of DMSO solvent, initial screen.
[9] abbreviates: read-out: mean % growth, L. mexicana, initial screen, compared to a normalised control with same concentration of DMSO solvent.
The mark [10] stands for this setting: Trypanosoma brucei, initial screen, compared to a normalised control with same concentration of DMSO solvent, read-out: mean % growth, T. b. brucei.
Where [11] appears, read: compared to a normalised control with same concentration of DMSO solvent, read-out: mean % growth, T. evansi.
[12] abbreviates: 48 h, read-out: mean % growth, P. falciparum, initial screen, compared to a normalised control with same concentration of DMSO solvent.
Where [13] appears, read: mean % growth compared to a normalised control with same concentration of DMSO solvent, initial screen.

Structures are written as SMILES. Read-outs that look alike come from different tables or passages of the source.

In the case of `COc1ccc(CC2COC(=O)C2Cc2ccc(OC)c(O)c2O)cc1OC` (stereo not drawn) [Compound 700144], the activity at 2 µM stood at 83.6% in data set [1] (setting [5]), 69.4% in data set [2] (setting [6]) and 82.6% in data set [4] (setting [8]). Moreover, the activity at 1 µM in data set [3] (setting [7]) came out at 35.8%. In addition, the inhibition of growth at 1 µM in data set [3] (1 μM, x = initial hit) was over 50%. In the data set with T. evansi (bloodstream form), the EC50 was 451 nM. Also, the CC50 at 48 h in the data set “in vitro” is over 100000 nM.

Regarding `CC(C)c1cc(CCC2C(=O)CCCC2(C)C)c(O)cc1O` (stereo not drawn) [Compound 700454], the results for the activity at 2 µM in data set [1] (setting [9]), in data set [2] (setting [10]) and in data set [4] (setting [12]) were 47.9%, 77.3% and 95.4%, respectively. Moreover, in data set [3] (setting [11]), the activity at 1 µM is 43.7%. In addition, the inhibition of growth at 1 µM in data set [3] (1 μM, x = initial hit) was over 50%. Besides, the “reduction of P. falciparum growth” value in data set [4] (2 μM, 48 h, Dd2Luc) stood at 5%. The EC50 in the data set on T. evansi (bloodstream form) came to 3300 nM.

In the case of `CC(=O)OC1C(COC(=O)/C=C/c2ccc(O)cc2)OC(Oc2c(-c3ccc(O)cc3)oc3cc(O)cc(O)c3c2=O)C(OC(=O)/C=C/c2ccc(O)cc2)C1O` (stereo not drawn) [Compound 701088], the values for the activity at 2 µM in data set [1] (setting [9]), in data set [2] (setting [10]) and in data set [4] (setting [12]) were 81.1%, 63% and 99.9%, respectively. For the same compound, in data set [3] (setting [11]), the activity at 1 µM came to 42.7%. The inhibition of growth at 1 µM in data set [3] (1 μM, x = initial hit) is over 50%. The 50% effective concentration (EC50) with T. evansi (bloodstream form) is 816 nM. Further, the CC50 at 48 h in “in vitro” came to 54000 nM.

Consider `CC(=O)OC1C(O)C(C)OC(OC2C(OC(=O)C3CC[C@@H]4[C@H](C3)OC3(CC(OC(=O)/C=C/c5ccccc5)[C@@H](C)CO3)C43CO3)OC(CO)C(O)C2OC(C)=O)C1O` (stereo partly drawn) [Compound 700063], for which the “decrease of L. mexicana survival” value in data set [1] is reported as about 70%. In addition, in data set [1] (setting [13]), the “% growth L. mexicana” value is recorded as 70.5%. Further, the “% growth T. b. brucei” value in data set [2] (setting [13]) turned out to be 95.6%. Further, the activity at 1 µM in data set [3] (read-out: % growth T. evansi, mean % growth compared to a normalised control with same concentration of DMSO solvent) stood at 44.5%. In addition, the inhibition of growth at 1 µM in data set [3] was over 50%. Further, the “activity against P. falciparum in screen” value in data set [4] (2 μM) is on record as “neither 700014 or 700063 showed activity against P. falciparum”. In data set [4] (setting [13]), the “%growth P. falciparum” value is listed as 104.8%. Further, in the data set on T. evansi, the EC50 is over 10000 nM.

As for `C/C=C(\C)C(=O)OC1C(C)OC(Oc2c(C(C)C)ccc(C)c2O)C(O)C1OC1OC(C)C(OC(=O)C(C)CC)C(O)C1O` (stereo not drawn) [Compound 700004], the activity at 2 µM in data set [1] (setting [5]) was found to be 48.1%; in data set [2] (setting [6]) it was 14%; in data set [4] (setting [8]) it was 101%. The “initial hit against T. brucei” value in data set [2] (2 μM, growth reduced by ≥50%) was “initial hits”. For the same compound, the inhibition of growth at 2 µM in data set [2] (Trypanosoma brucei, 2 μM, x = initial hit, read-out: initial hit T.b) is over 50%. For the same compound, the activity at 1 µM in data set [3] (setting [7]) stood at 0.7%. The inhibition of growth at 1 µM in data set [3] (1 μM, x = initial hit) was over 50%. Also, the EC50 in the data set on T. evansi (bloodstream form) turned out to be 357 nM. Moreover, the CC50 at 48 h in the data set “in vitro” was found to be 16000 nM.

On to `C/C(=C\C(=O)O)C(O)CC12CCCCC1C(C)(C(=O)OC(O)O)CCC2` (stereo not drawn) [Compound 700513], for which the values for the activity at 2 µM in data set [1] (setting [9]), in data set [2] (setting [10]) and in data set [4] (setting [12]) were 56.5%, 104% and 97%, respectively. The activity at 1 µM in data set [3] (setting [11]) turned out to be 50%. Besides, the inhibition of growth at 1 µM in data set [3] (1 μM, x = initial hit) is over 50%. Besides, the EC50 with T. evansi (bloodstream form) came out at 756 nM. This compound also yielded a CC50 at 48 h in the data set “in vitro” of over 100000 nM.

For `CC1=CC(CC(C)C2CCC3(C)C4=CCC5C(C)(C)C(=O)CCC5(C)C4CCC23C)OC1=O` (stereo not drawn) [Compound 700016], the “decrease of L. mexicana survival” value in data set [1] is “more than 50%”. Besides, the activity at 2 µM came to 47.1% in data set [1] (setting [5]), 75.7% in data set [2] (setting [6]) and 104% in data set [4] (setting [8]). The activity at 1 µM in data set [3] (setting [7]) stood at 40.5%. Moreover, the inhibition of growth at 1 µM in data set [3] (1 μM, x = initial hit) is over 50%. The EC50 with T. evansi (bloodstream form) was over 3000 nM.

Regarding `CC(C)=CCc1c(O)cc2oc(-c3ccc(O)c(O)c3)c(O)c(=O)c2c1O` [Compound 700326], the activity at 2 µM in data set [1] (setting [5]) came out at 27%; in data set [4] (setting [8]) it was 63.1%. The activity at 1 µM in data set [3] (setting [7]) came out at 34.7%. Further, the inhibition of growth at 1 µM in data set [3] (1 μM, x = initial hit) is over 50%. Further, in the data set on T. evansi (bloodstream form), the EC50 is 1800 nM.
